Experimental findings from PubChem BioAssay AID1996 are described below.

Values after ≈ are worked out from the molar mass of the structure shown. A value given as a limit tells only on which side of the number the result lay.

The conditions of this series: buffer; pH 7.4; 200.0 µM.
With `COc1ccc(NC(C)=O)c(C)c1`, the solubility (kinetic) was over 26.9 µg/mL.

With `O=C(NNC(=O)C12CC3CC(CC(C3)C1)C2)c1cccc([N+](=O)[O-])c1`, the solubility (kinetic) was over 51.5 µg/mL.

`CC1CCCC(NC(=O)c2ccncc2)C1C` (centres undefined) displayed a kinetic solubility of over 34.8 µg/mL.

`C=CCSc1nc(C)cc2c1C(=O)OC2` displayed a solubility (kinetic) of over 33.2 µg/mL.

Consider `CCOC(=O)c1c(N)c2cc([N+](=O)[O-])cnc2n1C`, for which the kinetic solubility was 1.9 µg/mL (≈ 7.19 µM).

On to `CCC(Oc1ccccc1)C(=O)NC1CCCCCC1` (centres undefined), for which the kinetic solubility is 28.3 µg/mL (≈ 103 µM).

Take `COc1cc(/C=C/c2onc(C)c2[N+](=O)[O-])cc(OC)c1OC`: the kinetic solubility is under 0.3 µg/mL.

Regarding `COc1ccccc1NC(=O)Nc1ccccc1C#N`, the solubility (kinetic) was 24.8 µg/mL (≈ 92.8 µM).

`COc1ccc(S(=O)(=O)N2CC(=O)Nc3ccccc32)cc1C` registered a solubility (kinetic) of over 49.9 µg/mL.

`COc1ccc2c(c1OC)CN1CCc3cc4c(cc3C1C2)OCO4` (centres undefined): the solubility (kinetic) stood at 2.1 µg/mL (≈ 6.19 µM).

`CC(NC(=O)CSc1nc2ccccc2n1C)c1ccccc1` (centres undefined) gave a kinetic solubility of over 48.8 µg/mL.

`CCOc1ccc(OCCn2c(=S)[nH]c3ccccc32)cc1` registered a solubility (kinetic) of 0.9 µg/mL (≈ 2.86 µM).

`COc1ccc(N2CC(NC(=O)Nc3ccccc3)CC2=O)cc1` (centres undefined) displayed a solubility (kinetic) of 19.7 µg/mL (≈ 60.5 µM).

Compound `CC(C(=O)Nc1ccccc1)N1CCN(c2ccccn2)CC1` (centres undefined) returned a kinetic solubility of 11.2 µg/mL (≈ 36.1 µM).

On to `Cc1cc(C(=O)Nc2ccccc2)oc(=O)c1`, for which the solubility (kinetic) is 25.9 µg/mL (≈ 113 µM).

Turning to `Cc1ccc(N(CC(=O)NC2CC2)S(=O)(=O)c2ccccc2)c(C)c1`, the kinetic solubility was over 53.8 µg/mL.

Regarding `Nc1ncnc(Nc2c(F)cccc2F)n1`, the kinetic solubility was over 33.5 µg/mL.

On to `O=C1NC(=Nc2ccc(F)cc2)SC1Cc1ccc(F)cc1` (centres undefined), for which the solubility (kinetic) was found to be 1 µg/mL (≈ 3.14 µM).

Consider `Cc1ccc(-c2nc3ccccc3c(=O)n2-c2cccc(C)n2)cc1`, for which the solubility (kinetic) is over 49.1 µg/mL.

As for `COc1ccc(C(=O)C23CN4CN(CN(C4)C2)C3)cc1`, the kinetic solubility is over 41 µg/mL.

With `O=C(NCCOc1ccccc1)C(=O)NCC1CCCO1` (centres undefined), the solubility (kinetic) was over 43.9 µg/mL.

In turn, `Cc1[nH]c2ccccc2c(=O)c1CN1CCCCCC1` had a solubility (kinetic) of over 40.6 µg/mL.

`CN(C)C(=O)C(CCN1CCC(O)(c2ccc(Cl)cc2)CC1)(c1ccccc1)c1ccccc1.Cl`: the solubility (kinetic) was over 77 µg/mL.

In turn, `Fc1ccccc1-c1nc2nc3ccccc3nc2n1CC1CCCO1` (centres undefined) displayed a kinetic solubility of over 52.3 µg/mL.

`Cc1onc(-c2ccccc2)c1C(=O)N1CCCCCC1`: the kinetic solubility was over 42.7 µg/mL.

The compound `O=C(COC(=O)c1ccncc1)Nc1cccc2ccccc12` showed a kinetic solubility of 40.3 µg/mL (≈ 132 µM).

`CC(C)Oc1cccc(C(=O)NC2=NCCS2)c1` came in with a kinetic solubility of 22 µg/mL (≈ 83.2 µM).

In the case of `On1c(-c2ccccc2)nc2ccccc21`, the solubility (kinetic) is over 31.5 µg/mL.

In the case of `Cc1ccc(OCCNCc2ccccc2)c(C)c1.O=C(O)C(=O)O`, the solubility (kinetic) stood at 45.8 µg/mL.

As for `O=C(NC1CC1)C1CCCN(C(=O)NC2CCCCC2)C1` (centres undefined), the kinetic solubility was over 44 µg/mL.

In turn, `O=C(NC1CC1)C1CCN(C(=O)c2ccc(Cl)cc2)CC1` returned a solubility (kinetic) of 45.8 µg/mL (≈ 149 µM).

The compound `CCCC(=O)Nc1cc(OC)c(C(=O)OC)cc1Cl` gave a solubility (kinetic) of over 42.9 µg/mL.

As to `COc1ccc(CNC/C=C/c2ccccc2)cc1.Cl`, the kinetic solubility is over 43.5 µg/mL.

`NC(=O)c1cc[n+](CC(=O)NC(=O)Nc2ccccc2)cc1` had a kinetic solubility of 30.5 µg/mL.
